In patent publication US20250179059A1 (The Regents of the University of California, priority 2021, published 2025):
Where two headings read alike, the source gives them in different places.

Columns and labels:
[1] = target: T1, human BRD4 bromodomain II (Homo sapiens, UniProt O60885); test: Bromodomain binding assay (AlphaScreen), BRD4 BDII
T1 construct: human BRD4 bromodomain II [based on Genbank NM_058243, residues 349-460]; host or cells: E. coli
Method in brief: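 E. coli-expressed N-terminal His6-tagged human BRD4 BDII (residues 349-460) or BDI (residues 44-170) was preincubated 30 min at room temperature with compound (10-point, 3-fold) in pH 7.5 HEPES buffer, 1% DMSO. Displacement of biotinylated tetra-acetylated H4 1-21 peptide was read by AlphaScreen, and IC50 came from curve fitting.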

[2] = test system: human SKM-1 acute myeloid leukemia cells; test: SKM-1 antiproliferation cell-based assay (ATPlite); settings: Homo sapiens
Method in brief: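 Log-phase cells in RPMI 1640/15% FBS were seeded at 34722 cells/mL and exposed for 4 days to nine-concentration DMSO serial dilutions in triplicate. Viability was read as ATP luminescence (ATPlite 1step), and IC50 values came from variable-slope non-linear regression.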

[3] = AlphaScreen assay, Table C2, read-out: BRD4 BDII IC50
[4] = SKM-1, 96 h, SKM-1 antiproliferation assay, 4 days, Table C2
[5] = BRD4 BDII AlphaScreen assay, read-out: BRD4 BD2 IC50
[6] = SKM-1, SKM-1 antiproliferation assay

SMILES	IC50 [1, 3] [nM]	GI50 [2, 4] [nM]	IC50 [1, 5] [nM]	GI50 [2, 6] [nM]
CC(C)c1cc(-c2ccnc(N3CCNCC3)c2)c(O)c(-c2ccc(N3CCN(C)C3=O)c(Cl)c2)c1 [Example 315, l-(3-chloro-2′-hydroxy-5′-isopropyl-3′-(2-(piperazin-1-yl)pyridin-4-yl)-[1,1-biphenyl]-4-yl)-3-methylimidazolidin-2-one]	10 to 100	300 to 3000		
Cn1ccn(-c2ccc(-c3ccnc(-c4cccc(N5CCN(C(C)(C)C)CC5)c4)c3N)cc2Cl)c1=O [Example 976, 1-(4-(3-Amino-2-(3-(4-(tert-butyl)piperazin-1-yl)phenyl)pyridin-4-yl)-2-chlorophenyl)-3-methyl-1H-imidazol-2(3H)-one]			1 to 10	0.3 to 30
Cc1ncc(-c2nccc(-c3ccc(-n4ccn(C)c4=O)c(Cl)c3)c2O)cc1N1CCN(C(C)(C)C)CC1 [Example 993, 1-(4-(5′-(4-(tert-Butyl)piperazin-1-yl)-3-hydroxy-6′-methyl-[2,3′-bipyridin]-4-yl)-2-chlorophenyl)-3-methyl-1H-imidazol-2(3H)-one]			10 to 100	0.3 to 30
Cc1cc(-c2ccc(-n3ccn(C)c3=O)c(Cl)c2)c(O)c(-c2cc(N3CCN[C@H](C)C3)c3cn[nH]c3c2)c1 [Example 585, (R)-1-(3-chloro-2′-hydroxy-5′-methyl-3′-(4-(3-methylpiperazin-1-yl)-1H-indazol-6-yl)-[1,1′-biphenyl]-4-yl)-3-methyl-1H-imidazol-2(3H)-one]	1 to 10	0.3 to 30		
Cn1ccn(-c2ccc(-c3cc(F)cc(-c4ccnc(N5CCC(C)(N6CCCC6)C5)c4)c3O)cc2Cl)c1=O (centres unmarked) [Example 822, 1-(3-chloro-5′-fluoro-2′-hydroxy-3′-(2-(3′-methyl-[1,3′-bipyrrolidin]-1′-yl)pyridin-4-yl)-[1,1′-biphenyl]-4-yl)-3-methyl-1H-imidazol-2(3H)-one]	1 to 10	0.3 to 30		
Cn1ccn(-c2ccc(-c3cc(F)cc(-c4ccnc(N5CC(C)(O)C6(CC6)C5)c4)c3O)cc2Cl)c1=O (centres unmarked) [Example 779, 1-(3-chloro-5′-fluoro-2′-hydroxy-3′-(2-(7-hydroxy-7-methyl-5-azaspiro[2.4]heptan-5-yl)pyridin-4-yl)-[1,1′-biphenyl]-4-yl)-3-methyl-1H-imidazol-2(3H)-one]	1 to 10	0.3 to 30		
C[C@@H]1CN(c2cc(-c3cc(F)cc(-c4ccc(-n5ccn(C)c5=O)c(Cl)c4)c3O)cnn2)CCN1 [Example 650, (R)-1-(3-chloro-5′-fluoro-2′-hydroxy-3′-(6-(3-methylpiperazin-1-yl)pyridazin-4-yl)-[1,1′-biphenyl]-4-yl)-3-methyl-1H-imidazol-2(3H)-one]	0.01 to 1	0.3 to 30		
O=C1CCCN1c1ccc(-c2cc(Cl)cc(-c3ccnc(N4CCNCC4)c3)c2O)cc1Cl [Example 274, 1-(3,5′-dichloro-2′-hydroxy-3′-(2-(piperazin-1-yl)pyridin-4-yl)-[1,1′-biphenyl]-4-yl)pyrrolidin-2-one]	1 to 10	30 to 300		
CN1CCN(c2ccc(-c3cc(F)cc(-c4ccnc(N5CCC[C@H](N)C5)c4)c3O)cc2Cl)C1=O [Example 360, (S)-1-(3′-(2-(3-aminopiperidin-1-yl)pyridin-4-yl)-3-chloro-5′-fluoro-2′-hydroxy-[1,1′-biphenyl]-4-yl)-3-methylimidazolidin-2-one]	1 to 10	30 to 300		
CC(C)N1C2CCC1CN(c1cccc(-c3cc(F)cc(-c4ccc(-n5ccn(C)c5=O)c(Cl)c4)c3O)c1)C2 [Example 846, 1-(3-chloro-5′-fluoro-2′-hydroxy-338-(8-isopropyl-3,8-diazabicyclo[3.2.1]octan-3-yl)-[1,1′:3′,1″-terphenyl]-4-yl)-3-methyl-1H-imidazol-2(3H)-one]	0.01 to 1	0.3 to 30		
Cn1ccn(-c2ccc(-c3cccc(-c4cccc(N5CCN(C(C)(C)C)CC5)c4)c3O)cc2Cl)c1=O [Example 1021, 1-(3″-(4-(tert-butyl)piperazin-1-yl)-3-chloro-2′-hydroxy-[1,1′:3′,1″-terphenyl]-4-yl)-3-methyl-1H-imidazol-2(3H)-one]			0.01 to 1	0.3 to 30
Cn1ccn(-c2ccc(-c3cc(F)cc(-c4ccnc(N5CCN(CC6COC6)CC5)c4)c3O)cc2Cl)c1=O [Example 611, 1-(3-chloro-5′-fluoro-2′-hydroxy-3′-(2-(4-(oxetan-3-ylmethyl)piperazin-1-yl)pyridin-4-yl)-[1,1′-biphenyl]-4-yl)-3-methyl-1H-imidazol-2(3H)-one]	0.01 to 1	0.3 to 30		
Cn1ccn(-c2ccc(-c3cc(F)cc(-c4ccnc(N5CCC[C@H](CN)C5)c4)c3O)cc2Cl)c1=O [Example 497, (R)-1-(3′-(2-(3-(aminomethyl)piperidin-1-yl)pyridin-4-yl)-3-chloro-5′-fluoro-2′-hydroxy-[1,1′-biphenyl]-4-yl)-3-methyl-1H-imidazol-2(3H)-one]	1 to 10	300 to 3000		
Cn1ccn(-c2ccc(-c3cc(F)cc(-c4ccnc(N5CC6CNC6C5)c4)c3O)cc2Cl)c1=O (centres unmarked) [Example 656, 1-(3′-(2-(3,6-diazabicyclo[3.2.0]heptan-3-yl)pyridin-4-yl)-3-chloro-5′-fluoro-2′-hydroxy-[1,1′-biphenyl]-4-yl)-3-methyl-1H-imidazol-2(3H)-one]	0.01 to 1	0.3 to 30		
C[C@@H]1CN(c2cncc(-c3cc(F)cc(-c4ccc(-n5ccn(C)c5=O)c(Cl)c4)c3O)c2)CCN1 [Example 467, (R)-1-(3-chloro-5′-fluoro-2′-hydroxy-3′-(5-(3-methylpiperazin-1-yl)pyridin-3-yl)-[1,1′-biphenyl]-4-yl)-3-methyl-1H-imidazol-2(3H)-one]	0.01 to 1	0.3 to 30		
CC(=O)Nc1ccc(-c2cccc(-c3cc(Cl)cc(N4CCNCC4)c3)c2O)cc1F [Example 214, N-(3″-chloro-3-fluoro-2′-hydroxy-5″-(piperazin-1-yl)-[1,1′:3′,1″-terphenyl]-4-yl)acetamide]	1 to 10	300 to 3000		
Cn1ccn(-c2ccc(-c3cc(F)cc(-c4ccnc(N5CCN6CCCC6C5)c4)c3O)cc2Cl)c1=O (centres unmarked) [Example 625, 1-(3-chloro-5′-fluoro-3′-(2-(hexahydropyrrolo[1,2-a]pyrazin-2(1H)-yl)pyridin-4-yl)-2′-hydroxy-[1,1′-biphenyl]-4-yl)-3-methyl-1H-imrdazol-2(3H)-one]	0.01 to 1	0.3 to 30		
COc1ncc(-c2cc(F)cc(-c3ccc(-n4ccn(C)c4=O)c(Cl)c3)c2O)cc1N1CCN(C2CCC2)CC1 [Example 880]			0.01 to 1	0.3 to 30
Cn1ccn(-c2ccc(-c3cc(F)cc(-c4ccnc(N5CCN(CCCO)CC5)c4)c3O)cc2Cl)c1=O [Example 617, 1-(3-chloro-5′-fluoro-2′-hydroxy-3′-(2-(4-(3-hydroxypropyl)piperazin-1-yl)pyridin-4-yl)-[1,1′-biphenyl]-4-yl)-3-methyl-1H-imrdazol-2(3H)-one]	0.01 to 1	0.3 to 30		
COc1ncc(-c2cc(F)cc(-c3ccc(-n4ccn(C)c4=O)c(Cl)c3)c2O)cc1N1CC(C)(O)C2(CC2)C1 (centres unmarked) [Example 833, 1-(3-chloro-5′-fluoro-2′-hydroxy-3′-(5-(7-hydroxy-7-methyl-5-azaspiro[2.4]heptan-5-yl)-6-methoxypyridin-3-yl)-[1,1′-biphenyl]-4-yl)-3-methyl-1H-imidazol-2(3H)-one]	1 to 10	30 to 300		
CC(=O)NCc1ccc(-c2cccc(-c3ccc(N4CCN(C)C4=O)c(Cl)c3)c2O)cc1N1CCNCC1 [Example 320, N-((3″-chloro-2′-hydroxy-4″-(3-methyl-2-oxoimidazolidin-1-yl)-3-(piperazin-1-yl)-[1,1′:3′,1″-terphenyl]-4-yl)methyl)acetamide]	1 to 10	30 to 300		
Cn1ccn(-c2ccc(-c3cc(F)cc(-c4cc(-c5ccn[nH]5)nc(N5CCNCC5)c4)c3O)cc2Cl)c1=O [Example 553, 1-(3-chloro-5′-fluoro-2′-hydroxy-3′-(2-(piperazin-1-yl)-6-(1H-pyrazol-5-yl)pyridin-4-yl)-[1,1′-biphenyl]-4-yl)-3-methyl-1H-imidazol-2(3H)-one]	1 to 10	0.3 to 30		
C[C@@H]1CN(c2cc(-c3cc(F)cc(-c4ccc(-n5ccn(C)c5=O)c(Cl)c4)c3O)ccn2)C[C@@H](C)O1 [Example 684, 1-(3-chloro-3′-(2-((2R,6R)-2,6-dimethylmorpholino)pyridin-4-yl)-5′-fluoro-2′-hydroxy-[1,1′-biphenyl]-4-yl)-3-methyl-1H-imidazol-2(3H)-one]	1 to 10	30 to 300		
Cc1cc(-c2cc(F)cc(-c3ccc(-n4ccn(C)c4=O)c(Cl)c3)c2O)cc(N2CCN(C(C)C)CC2)n1 [Example 703, 1-(3-chloro-5′-fluoro-2′-hydroxy-3′-(2-(4-isopropylpiperazin-1-yl)-6-methylpyridin-4-yl)-[1,1′-biphenyl]-4-yl)-3-methyl-1H-imidazol-2(3H)-one]	1 to 10	0.3 to 30		
Cc1nc(-c2cccc(N3CCN(C(C)(C)C)CC3)c2)c(O)c(-c2ccc(-n3ccn(C)c3=O)c(Cl)c2)n1 [Example 920, 1-(4-{6-[3-(4-tert-Butyl-piperazin-1-yl)-phenyl]-5-hydroxy-2-methyl-pyrimidin-4-yl}-2-chloro-phenyl)-3-methyl-1,3-dihydro-imidazol-2-one]			> 100	30 to 300
